pIC50: −log10 of the molar value.
Biological target: T1, Type-1 15-PGDH (Homo sapiens, UniProt P15428)
T1 construct: made in house
T1 sequence (P15428 1-266): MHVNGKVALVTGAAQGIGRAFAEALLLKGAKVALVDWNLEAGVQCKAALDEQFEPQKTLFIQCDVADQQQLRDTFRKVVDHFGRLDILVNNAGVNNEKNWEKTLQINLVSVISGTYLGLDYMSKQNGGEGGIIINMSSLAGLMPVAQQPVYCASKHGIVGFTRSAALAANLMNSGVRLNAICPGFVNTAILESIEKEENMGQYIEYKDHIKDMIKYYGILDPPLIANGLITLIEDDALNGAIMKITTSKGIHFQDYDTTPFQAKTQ
Test: Test on type-1 15-PGDH (spectrophotometric enzyme inhibition)
Format: biochemical
Details: Tris buffer pH 7.4, 1.5 mM β-NAD, 50 μM prostaglandin E2, 37° C., 340 nm; read-out: IC50dh (concentration that reduces the enzymatic activity of 15-PGDH by 50%)
Procedure: The enzyme 15-PGDH is obtained as disclosed in FR 02/05067, assigned to the assignee hereof, in suspension in a medium adjusted to a concentration of 0.3 mg/ml and then blocked at −80° C. For the requirements of the test, this suspension is defrosted and stored in ice.
Furthermore, a 100 mM, pH=7.4, Tris buffer comprising 0.1 mM of dithiothreitol (D5545, Sigma-Aldrich, L'isle D'Abeau Chesne, BP 701, 38297, Saint Quentin Fallavier) 1.5 mM of β-NAD (N6522, Sigma-Aldrich, L'isle D'Abeau Chesne, BP 701, 38297, Saint Quentin Fallavier) and 50 μM of prostaglandin E2 (P4172, Sigma-Aldrich, L'isle D'Abeau Chesne, BP 701, 38297, Saint Quentin Fallavier) is prepared.
0.965 ml of this buffer (adjusted beforehand to 37° C.) is introduced into the cell of a spectrophotometer (Perkin-Elmer, Lambda 2) thermostatically controlled at 37° C., the measuring wavelength of which is adjusted to 340 nm. 0.035 ml of enzymatic suspension at 37° C. is introduced into the cell concomitantly with the recording (corresponding to an increase in the optical density at 340 nm). The maximum reaction rate is recorded.
The test values (comprising compound 1) are compared with the control value (without compound 1); the results shown represent either the percentage of inhibition of the enzymatic activity of 15-PGDH for a given concentration of compound of formula (I) or the concentration at which compound 1 reduces the enzymatic activity of 15-PGDH by 50%, namely IC50dh.

| Compound | pIC50 |
| --- | --- |
| CCOC(=O)c1cccc(-c2ccc(CC3SC(=O)NC3=O)o2)c1 (stereo not drawn) [Compound 4, Ethyl 3-{5-[(2,4-dioxo-1,3-thiazolidin-5-yl)methyl]-2-furyl}benzoate] | 5.34 |
| O=C1NC(=O)C(Cc2ccc(-c3ccc(C(F)(F)F)cc3)s2)S1 (stereo not drawn) [Compound 5, 5-({5-[4-(trifluoromethyl)phenyl]thien-2-yl}methyl)-1,3-thiazolidine-2,4-dione] | 4.75 |
| O=C1NC(=O)C(Cc2ccc(-c3cccc(CO)c3)s2)S1 (stereo not drawn) [Compound 7, 5-({5-[3-(Hydroxymethyl)phenyl]-2-thienyl}methyl)-1,3-thiazolidine-2,4-dione] | 4.42 |
| O=C1N=C(O)C(Cc2ccc(-c3ccc(C(=O)O)cc3)o2)S1 (stereo not drawn) [Compound 1, 4-{5-[(2,4-dioxo-1,3-thiazolidin-5-yl)methyl]-2-furyl}benzoic acid] | 5.52 |

Second part, the compound after the results:

| pIC50 | Compound |
| --- | --- |
| 5.09 | O=C1NC(=O)C(Cc2ccc(-c3cccc(C(F)(F)F)c3)o2)S1 (stereo not drawn) [Compound 2, 5-[5-(3-(trifluoromethyl)phenyl)fur-2-ylmethyl]-1,3-thiazolidine-2,4-dione] |
| 5.28 | O=C1NC(=O)C(Cc2ccc(-c3cccc(Cl)c3)o2)S1 (stereo not drawn) [Compound 3, 5-{[5-(3-chlorophenyl)-2-furyl]methyl}-1,3-thiazolidine-2,4-dione] |

Reference: patent US20070077215A1, “Administration of phenylfurymethylthiazolidine-2,4-dione or phenylthienymethylthiazolidine-2,4-dione compounds for promoting and/or inducing and/or stimulating the pigmentation of keratinous substances and/or limiting their depigmentation and/or their whitening” (L'OREAL, priority 2005, published 2007)
